{"source": "patent US12729377B2", "about": "“RNAi agents and compositions for inhibiting expression of angiopoietin-like 3 (ANGPTL3), and methods of use” (Arrowhead Pharmaceuticals, Inc., priority 2017, dated 2026)", "key": {"ANGPTL3 gene [1]": {"test_system": "ANGPTL3 gene", "assay": "Example 6: serum triglycerides in mice", "type": "in vivo, C57bl/6 mice", "method": "To assess the in vivo activity of additional ANGPTL3 RNAi agents that are designed to target position 304 on the ANGPTL3 gene, six- to eight-week-old female C57bl/6 mice were used. Pre-dose serum samples were taken at day −1 after a four hour fast. At day 1, each mouse was given a single subcutaneous administration of 200 μl containing 0.5 mg/kg (mpk) of an ANGPTL3 RNAi agent in D5W (dextrose in 5% water), or control (D5W) with no RNAi agent, according to the dosing groups recited in Table 25.\nEach of the RNAi agents included a modified sequence and an N-acetyl-galactosamine-containing targeting ligand conjugated to the 5′ terminal end of the sense strand. (See Tables 3, 4, and 5 for modified sequences and targeting ligand structures). The injections were performed between the skin and muscle (i.e. subcutaneous injections) into the loose skin over the neck and shoulder area. Three (3) mice in each group were tested (n=3). Serum was collected on days 8, 15, 22, 30, and on day 43 for certain groups (i.e., Groups 1, 2, 5, and 10 only). Mice were fasted for four hours prior to each collection. ANGPTL3 protein levels in serum were measured by ELISA assay (R&D Systems), according to the manufacturer's recommendations. Triglycerides, total cholesterol, high-density lipoprotein (HDL), and low-density lipoprotein (LDL) in serum were measured on a Cobas® Integra 400 (Roche Diagnostics), according to the manufacturer's recommendations.\nThe ANGPTL3 protein levels, triglyceride levels, total cholesterol levels, HDL levels, and LDL levels for each animal were normalized. For normalization, the level of ANGPTL3 protein, triglyceride, HDL, and total cholesterol, respectively, for each animal at a time point, was divided by the pre-treatment level of expression in that animal (in this case at day −1) to determine the ratio of expression “normalized to pre-treatment.” Expression at a specific time point was then normalized to the D5W control group by dividing the “normalized to pre-treatment” ratio for an individual animal by the mean “normalized to pretreatment” ratio of all mice in the D5W control group."}, "ANGPTL3 gene [2]": {"test_system": "ANGPTL3 gene", "assay": "Example 9: serum triglycerides in cynomolgus monkeys", "type": "in vivo, cynomolgus macaque (Macaca fascicularis)", "conditions": "2.0 mg/kg single SC injection day 1, cynos, n=3", "method": "(§1) Additional ANGPTL3 RNAi agents were evaluated in cynomolgus monkeys. On day 1, cynomolgus macaque (Macaca fascicularis) primates (also referred to herein as “cynos”) were administered a single subcutaneous injection of 0.3 mL/kg (approximately 2-3 mL volume, depending on animal mass) containing 2.0 mg/kg of an ANGPTL3 RNAi agent, which included either AD05488, AD05743, AD05775, or AD05841, each formulated in saline. […] ANGPTL3 RNAi agents AD05488, AD05743, and AD05775 included nucleotide sequences designed to target position 304 of the ANGPTL3 gene. ANGPTL3 RNAi agent AD05841 included nucleotide sequences designed to target position 1035 of the ANGPTL3 gene.\n(§2) Three (3) cynos in each group were tested (n=3). Blood samples were drawn and serum samples were analyzed on days −14 (predose), −7 (predose), 1 (pre-dose), 8, 15, 22, 29, and 35. Cynos were fasted overnight prior to each collection. ANGPTL3 protein levels in serum were measured by ELISA assay (R&D Systems), according to the manufacturer's recommendations. Triglycerides, total cholesterol, high-density lipoprotein (HDL), and low-density lipoprotein (LDL) in serum were measured on a Cobas® Integra 400 (Roche Diagnostics), according to the manufacturer's recommendations.\n(§3) The ANGPTL3 protein levels, triglyceride levels, total cholesterol levels, HDL levels, and LDL levels for each animal were normalized. For normalization, the level of ANGPTL3 protein, triglyceride, HDL, and total cholesterol, respectively, for each animal at a time point, was divided by the average pre-treatment level of expression in that animal (in this case at days −14, −7, and 1) to determine the ratio of expression “normalized to pre-treatment.”"}, "ANGPTL3 gene [3]": {"test_system": "ANGPTL3 gene", "assay": "Example 9: serum HDL in cynomolgus monkeys", "type": "in vivo, cynomolgus macaque (Macaca fascicularis)", "conditions": "2.0 mg/kg single SC injection day 1, cynos, n=3", "method": "as §1, §2, §3"}}, "note": "In the oligonucleotide strings, read from the 5' end, every base follows the letter of its sugar. An asterisk marks phosphorothioate; unmarked linkages are phosphodiester. Other units and linkages are bracketed, terminal groups are in braces. A string of capitals states the bases alone. {NAG37} = tridentate N-acetyl-galactosamine targeting ligand, structure (NAG37)s; [invAb] = inverted abasic unit; m = 2'-O-methyl; f = 2'-fluoro"}
{"substance": "AD05488: RNAi agent duplex: antisense AM07235-AS, sense AM07234-SS (antisense mU*fA*mC*fUmGfAmUfCmAfAmAfUmAfUmGfUmUfGmAfG*mC; sense {NAG37}*[invAb]*mGmCmUmCmAmAmCmAfUfAfUmUmUmGmAmUmCmAmGmUmA*[invAb])", "values": [{"measurement": "Avg TG, normalized to pre-treatment and control", "setting": "ANGPTL3 gene [1]; Day 8, 0.5 mg/kg single SC injection on day 1, n=3", "result": 0.568}, {"measurement": "Avg TG, normalized to pre-treatment and control", "setting": "ANGPTL3 gene [1]; Day 15, 0.5 mg/kg single SC injection on day 1, n=3", "result": 0.637}, {"measurement": "Avg TG, normalized to pre-treatment and control", "setting": "ANGPTL3 gene [1]; Day 22, 0.5 mg/kg single SC injection on day 1, n=3", "result": 0.484}, {"measurement": "Avg TG, normalized to pre-treatment and control", "setting": "ANGPTL3 gene [1]; Day 30, 0.5 mg/kg single SC injection on day 1, n=3", "result": 0.652}, {"measurement": "Avg TG, normalized to pre-treatment and control", "setting": "ANGPTL3 gene [1]; Day 43, 0.5 mg/kg single SC injection on day 1, n=3", "result": 0.689}, {"measurement": "Average Triglycerides Normalized to Pre-Treatment", "setting": "ANGPTL3 gene [2]; Day 8", "result": 0.413}, {"measurement": "Average Triglycerides Normalized to Pre-Treatment", "setting": "ANGPTL3 gene [2]; Day 15", "result": 0.403}, {"measurement": "Average Triglycerides Normalized to Pre-Treatment", "setting": "ANGPTL3 gene [2]; Day 22", "result": 0.288}, {"measurement": "Average Triglycerides Normalized to Pre-Treatment", "setting": "ANGPTL3 gene [2]; Day 29", "result": 0.344}, {"measurement": "Average Triglycerides Normalized to Pre-Treatment", "setting": "ANGPTL3 gene [2]; Day 35", "result": 0.350}, {"measurement": "Average HDL Normalized to Pre-Treatment", "setting": "ANGPTL3 gene [3]; Day 8", "result": 0.985}, {"measurement": "Average HDL Normalized to Pre-Treatment", "setting": "ANGPTL3 gene [3]; Day 15", "result": 0.911}, {"measurement": "Average HDL Normalized to Pre-Treatment", "setting": "ANGPTL3 gene [3]; Day 22", "result": 0.849}, {"measurement": "Average HDL Normalized to Pre-Treatment", "setting": "ANGPTL3 gene [3]; Day 29", "result": 0.856}, {"measurement": "Average HDL Normalized to Pre-Treatment", "setting": "ANGPTL3 gene [3]; Day 35", "result": 0.810}]}
